By Kd is commonly meant a measure of binding affinity in units of concentration.

These results are taken from PMC5263248, “Blood Group Antigen Recognition via the Group A Streptococcal M Protein Mediates Host Colonization” (mBio, 2017).

The target of the experiment is T1, M1 protein (Streptococcus pyogenes, UniProt Q99XV0).
T1 construct: gene emm1; captured on NTA chip
Nature of the experiment: SPR, single-cycle, steady-state affinity. Particulars: protein captured on NTA chip via His tag, PBS, 25 °C. Type of experiment: binding. For orientation: In SPR one partner is held on a chip, and binding of the other changes the refractive index at the surface.

T1 sequence (Q99XV0 entry or part of it): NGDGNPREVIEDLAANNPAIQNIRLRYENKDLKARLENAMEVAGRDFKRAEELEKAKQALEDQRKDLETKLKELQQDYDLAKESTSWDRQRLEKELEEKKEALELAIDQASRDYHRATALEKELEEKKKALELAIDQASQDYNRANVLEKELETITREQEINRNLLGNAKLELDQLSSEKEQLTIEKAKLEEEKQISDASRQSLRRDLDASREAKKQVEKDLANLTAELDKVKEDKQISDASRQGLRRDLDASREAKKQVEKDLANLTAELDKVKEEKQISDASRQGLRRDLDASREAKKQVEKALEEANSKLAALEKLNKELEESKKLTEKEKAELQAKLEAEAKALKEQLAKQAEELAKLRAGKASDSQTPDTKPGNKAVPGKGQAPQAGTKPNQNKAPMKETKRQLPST

`CC(=O)N[C@H]1[C@@H](O[C@H]2[C@@H](O)[C@@H](CO)OC(O)[C@@H]2O[C@@H]2O[C@@H](C)[C@@H](O)[C@@H](O)[C@@H]2O)O[C@H](CO)[C@H](O)[C@@H]1O` (some centres unmarked) [7K, GalNAcα1-3(Fucα1-2)Gal] came in with a Kd of 2.5 ± 0.4 µM.
The figure for `C[C@@H]1O[C@@H](O[C@H]2C(O)O[C@H](CO)[C@H](O)[C@@H]2O[C@H]2O[C@H](CO)[C@H](O)[C@H](O)[C@H]2O)[C@@H](O)[C@H](O)[C@@H]1O` (some centres unmarked) [blood group B trisaccharide, Galα1-3(Fucα1-2)Gal] is 0.518 ± 0.0513 µM.
